# Measurements: patent publication US9610369B2, “Compound suitable for detection of vesicular acetylcholine transporter” (HAMAMATSU PHOTONICS K.K., priority 2013, dated 2017)
# Assays:
# [1] = molecular target: T1, vesicular acetylcholine transporters (Macaca mulatta, UniProt A0A1D5QJ59); test: PET measurement of time-dependent change of [^11C]HAPT in brain ROIs; format: in vivo, Rhesus monkey (Macaca mulatta); conditions: brain of Rhesus monkey, FIG. 1; for binding to vesicular acetylcholine transporters: intravenous administration, dynamic PET 180 minutes
# T1 construct: Rhesus monkey having a body weight of about 5 kg was immobilized to PET apparatus; from tissue; host or cells: brain of living Rhesus monkey (in vivo PET)
# T1 sequence (A0A1D5QJ59 1-532): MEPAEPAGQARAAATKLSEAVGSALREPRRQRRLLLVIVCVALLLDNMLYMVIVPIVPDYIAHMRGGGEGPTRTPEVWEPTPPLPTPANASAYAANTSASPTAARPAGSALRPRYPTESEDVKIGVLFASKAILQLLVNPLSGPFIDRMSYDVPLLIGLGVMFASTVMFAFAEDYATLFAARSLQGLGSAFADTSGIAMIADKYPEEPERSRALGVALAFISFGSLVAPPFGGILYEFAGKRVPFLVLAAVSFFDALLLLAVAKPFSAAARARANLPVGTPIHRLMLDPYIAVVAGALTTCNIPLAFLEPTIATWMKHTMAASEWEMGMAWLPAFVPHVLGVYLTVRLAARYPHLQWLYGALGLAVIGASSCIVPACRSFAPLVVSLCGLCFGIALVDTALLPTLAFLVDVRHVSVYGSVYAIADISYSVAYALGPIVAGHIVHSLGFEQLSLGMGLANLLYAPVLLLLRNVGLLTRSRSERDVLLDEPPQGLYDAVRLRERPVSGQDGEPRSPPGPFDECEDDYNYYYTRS
# Procedure: (§1) Rhesus monkey having a body weight of about 5 kg was immobilized to PET apparatus (trade name, SHR7700 manufactured by Hamamatsu Photonics KK) without anesthesia. After transmission was measured for absorption correction, [^11C]HAPT was intravenously administered and dynamic measurement was performed for 180 minutes.
# In tomographic images obtained from a single individual by a nuclear magnetic resonance tomography apparatus (hereinafter, MRI), a region of interest (ROI) was determined and then, a time-dependent change of a labeled compound ([^11C]HAPT) in each ROI was obtained.
# [2] = molecular target: T1, vesicular acetylcholine transporters; test: Localization of [^11C]HAPT in individual sites of the brain (PET); format: in vivo; conditions: brain of Rhesus monkey, 13 sites checked, FIG. 3
# Procedure: as §1
# Localization of [^11C]HAPT in individual sites of the brain of Rhesus monkey was checked. The results of the cases of using (S,S)HAPT-A and (R,R)HAPT-A are shown in FIG. 3 (A); whereas the results of the cases of using (S,S)HAPT-B and (R,R)HAPT-B are shown in FIG. 3 (B).
# [3] = molecular target: T1, vesicular acetylcholine transporters; test: Inhibition experiment with vesicular transporter inhibitor vesamicol (PET); format: in vivo, Rhesus monkey; conditions: L-(−)-vesamicol 1 mg/kg intravenously 30 minutes before tracer, FIG. 4 and 5
# Procedure: Inhibition experiments were performed by using a vesicular transporter inhibitor (vesamicol). Specific procedure employed is as follows.
# The cephalic vein or saphenous vein was secured as the route for intravenous administration to test animals and the femoral artery or posterior tibial artery was secured as the route for arterial blood sampling.
# Thirty minutes before administration of [^11C]HAPT, L-(−)-vesamicol was intravenously administered in a dose of 1 mg/kg.
# The amount of radioactivity of [^11C]HAPT before administration was measured. A total amount of [^11C]HAPT was intravenously administered from an indwelling needle placed in a test animal over about 30 seconds. Simultaneously with initiation of administration, Emission measurement (121 minutes, 55 frames in total including: 10 seconds 6 frames, 30 seconds 6 frames, 1 minute 12 frames, […], 5 minutes 6 frames) was started for monitoring.
SMILES,binding to vesicular acetylcholine transporters [1],localization in individual sites of the brain [2],binding to vesicular acetylcholine transporters with vesamicol compared to control [3],time to reach an equilibrium state from initiation of measurement ([1]; PET)
"Cc1cccc2c1C[C@@H](N1CCN(c3ccccc3N)CC1)[C@H](O)C2 [(R,R)[^11C]HAPT-A]",specifically bind to vesicular acetylcholine transporters,localized most significantly in the putamen,–,–
"Cc1cccc2c1C[C@H](O)[C@@H](N1CCN(c3ccccc3N)CC1)C2 [(S,S)[^11C]HAPT-B]",does not bind to vesicular acetylcholine transporters,non-specific binding in any site,–,–
"Cc1cccc2c1C[C@H](N1CCN(c3ccccc3N)CC1)[C@@H](O)C2 [(S,S)[^11C]HAPT-A]",specifically bind to vesicular acetylcholine transporters,localized most significantly in the putamen,–,–
"[11CH3]c1cccc2c1C[C@@H](O)[C@H](N1CCN(c3ccccc3N)CC1)C2 [(R,R)[^11C]HAPT-B, (2R,3R)-3-(4-(2-aminophenyl)piperazin-1-yl)-8-[^11C]methyl-1,2,3,4-tetrahydronaphthalen-2-ol]",specifically bind to vesicular acetylcholine transporters,–,reduces,about 15 minutes
"Cc1cccc2c1C[C@@H](O)[C@H](N1CCN(c3ccccc3N)CC1)C2 [(R,R)[^11C]HAPT-B, (2R,3R)-3-(4-(2-aminophenyl)piperazin-1-yl)-8-[^11C]methyl-1,2,3,4-tetrahydronaphthalen-2-ol]",specifically binds to a vesicular acetylcholine transporter,localized most significantly in the putamen,–,–
